# Results from patent US20230210834A1, “RNA METHYLTRANSFERASE INHIBITOR, SCREENING METHOD THEREFOR, ANTI-CANCER AGENT EFFICACY ASSESSMENT MARKER, AND KIT FOR EFFECTIVELY PREDICTING FTSJ1 INHIBITOR” (National University Corporation Okayama University, priority 2019, published 2023).
# Tests used:
# [1] = Body weight in the anti-tumor effect evaluation test; type: in vivo, immunodeficient mice (BALB/c-nu/nu); settings: 20 mg/kg intraperitoneally every other day
# Protocol: A cell suspension (1×10^6 cells/100 μL), in which triple-negative breast cancer cell line MDA-MB-231 was suspended in phosphate buffer (PBS, produced by FUJIFILM Wako Pure Chemical Corporation), was inoculated subcutaneously in the dorsal lumbar region of immunodeficient mice (BALB/c-nu/nu, female, 6 weeks old, purchased from Shimizu Laboratory Supplies Co., Ltd.) using a syringe with a 23 G injection needle (Terumo Corporation). After confirming that the cancer cells engrafted under the skin of the mice to form tumor tissues, and that the tumor volume reached 100 mm^3, the obtained tumor model mice were used for the following evaluation test. First, each compound for evaluation was dissolved in corn oil (produced by Sigma-Aldrich Co., LLC) and administered intraperitoneally. PVZF0024 was administered at 100 mg/kg and PVZF2001 was administered at 20 mg/kg to the tumor model mice every other day. At each administration, the tumor diameter was measured with a caliper. The tumor volume was calculated according to the following formula: V=(3.14×D×d^2)/6 (wherein V is the tumor volume, D is the tumor major axis, and d is the tumor minor axis) (Wu. et al., Clin. Cancer Res., 2013 Oct. 15; 19(20): 5699-5710).
# FIGS. 1 and 2 show the antitumor effects of PVZF0024 and PVZF2001.
# YAP/TAZ = experiment: Screening: YAP/TAZ activity reporter (8xGTIIC plasmid) assay in NUGC3 cells (luminescence % of DMSO); type: cell-based, human; settings: NUGC3 cells, luminescence relative to DMSO
# MGG23 = experiment: Sphere-forming ability (anchorage-independent cell proliferation), MGG23; type: cell-based, human; settings: MGG23 (low FTSJ1 expression), 1 week, 0-5000 nM; FIG. 4B
# Protocol: To verify whether the expression analysis of these gene clusters contributes to predicting the anti-cancer effect by the FTSJ1 inhibitors, the FTSJ1 gene was actually used as an example to analyze the anti-cancer effect of the FTSJ1 inhibitor PVZF2001 on human malignant brain tumor cell lines. Human malignant brain tumor cell lines MGG4, MGG8, MGG18, MGG23 were treated with stem cell medium (Neurobasal, B-27, N-2, 20 ng/mL EGF, 20 ng/mL bFGF) containing different concentrations (0 nm, 200 nM, 500 nM, 1000 NM, 2000 NM, 5000 nM) of PVZF2001 for 1 week, and anchorage-independent cell proliferation was evaluated based on sphere-forming ability.
compound,measurement,setting,value
CC(C)c1cc(C(C)C)c(S(=O)(=O)CC2CC(C)(C)CC(C)(C)C2)c(C(C)C)c1 [PVZF2001],weight loss due to administration,[1],no weight loss due to administration was observed
same,8×GTIIC,YAP/TAZ; 5 μM,40.38%
same,8×GTIIC,YAP/TAZ; 10 μM,20.02%
same,anchorage-independent cell proliferation (sphere-forming ability),MGG23,showed cell proliferation even when treated at a concentration as high as 2000 NM
